Data: publication PMC4365076, “The phage growth limitation system in Streptomyces coelicolor A(3)2 is a toxin/antitoxin system, comprising enzymes with DNA methyltransferase, protein kinase and ATPase activity” (Virology, 2015)
Numbering of substitutions follows the chain as printed. In names and notes the source's numbering stands.

How the values were obtained:
[1] = target: T1, PglY (His6–PglY) (Streptomyces coelicolor, UniProt O86682); test: inhibition of ATP hydrolysis, Pi release, malachite green; type: biochemical; conditions: 1–3 mM ADP-NP against 1–3 mM ATP; 30 °C, pH 8.0, 10 mM MgCl2
T1 construct: ~160 kDa band, MALDI-TOF identified; Walker A GSFGSGKS at 75–82
T1 sequence (O86682 1-1294): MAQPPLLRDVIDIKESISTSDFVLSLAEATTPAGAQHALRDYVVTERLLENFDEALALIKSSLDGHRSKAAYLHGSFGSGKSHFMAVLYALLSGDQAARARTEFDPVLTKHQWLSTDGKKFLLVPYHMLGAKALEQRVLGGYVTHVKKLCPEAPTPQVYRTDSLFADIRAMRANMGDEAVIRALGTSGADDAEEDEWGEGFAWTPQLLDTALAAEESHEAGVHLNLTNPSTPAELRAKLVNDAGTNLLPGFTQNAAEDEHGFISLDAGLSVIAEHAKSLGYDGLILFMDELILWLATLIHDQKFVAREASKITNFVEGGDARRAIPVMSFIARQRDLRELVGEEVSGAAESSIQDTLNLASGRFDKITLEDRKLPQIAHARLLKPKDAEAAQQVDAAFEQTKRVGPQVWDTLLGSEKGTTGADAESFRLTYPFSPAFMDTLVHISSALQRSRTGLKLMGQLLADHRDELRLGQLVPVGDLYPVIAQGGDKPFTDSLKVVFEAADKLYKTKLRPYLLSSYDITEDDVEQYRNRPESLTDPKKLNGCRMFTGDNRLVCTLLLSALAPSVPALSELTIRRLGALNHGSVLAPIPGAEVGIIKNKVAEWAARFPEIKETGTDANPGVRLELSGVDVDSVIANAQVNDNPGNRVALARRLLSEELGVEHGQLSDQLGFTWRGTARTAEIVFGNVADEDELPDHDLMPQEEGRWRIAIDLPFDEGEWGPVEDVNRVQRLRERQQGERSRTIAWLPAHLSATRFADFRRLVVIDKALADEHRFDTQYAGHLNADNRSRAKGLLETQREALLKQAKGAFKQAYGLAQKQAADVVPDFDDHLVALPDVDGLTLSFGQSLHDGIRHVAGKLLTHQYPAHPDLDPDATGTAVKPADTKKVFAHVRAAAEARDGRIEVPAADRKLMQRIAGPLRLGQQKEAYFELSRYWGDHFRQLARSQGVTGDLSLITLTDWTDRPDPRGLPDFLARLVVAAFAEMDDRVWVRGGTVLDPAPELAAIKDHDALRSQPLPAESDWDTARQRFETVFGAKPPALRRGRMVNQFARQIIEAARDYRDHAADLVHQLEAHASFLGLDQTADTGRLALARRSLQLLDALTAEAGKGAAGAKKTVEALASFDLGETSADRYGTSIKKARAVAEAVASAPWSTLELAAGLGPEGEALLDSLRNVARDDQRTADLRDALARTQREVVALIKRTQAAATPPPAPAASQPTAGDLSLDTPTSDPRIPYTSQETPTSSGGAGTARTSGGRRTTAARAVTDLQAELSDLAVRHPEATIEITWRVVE

[2] = target: T2, PglX (PglX–His6) (Streptomyces coelicolor, UniProt Q8CJM2); test: 3H-methyl incorporation into DNA, scintillation counting; type: biochemical; conditions: 12 μM labelled compound, phage ϕC31 DNA co-substrate, 1 mM EDTA, pH 7.5, 30 °C; partially purified enzyme
T2 construct: NPPY motif at 378–381
T2 sequence (Q8CJM2 1-1210): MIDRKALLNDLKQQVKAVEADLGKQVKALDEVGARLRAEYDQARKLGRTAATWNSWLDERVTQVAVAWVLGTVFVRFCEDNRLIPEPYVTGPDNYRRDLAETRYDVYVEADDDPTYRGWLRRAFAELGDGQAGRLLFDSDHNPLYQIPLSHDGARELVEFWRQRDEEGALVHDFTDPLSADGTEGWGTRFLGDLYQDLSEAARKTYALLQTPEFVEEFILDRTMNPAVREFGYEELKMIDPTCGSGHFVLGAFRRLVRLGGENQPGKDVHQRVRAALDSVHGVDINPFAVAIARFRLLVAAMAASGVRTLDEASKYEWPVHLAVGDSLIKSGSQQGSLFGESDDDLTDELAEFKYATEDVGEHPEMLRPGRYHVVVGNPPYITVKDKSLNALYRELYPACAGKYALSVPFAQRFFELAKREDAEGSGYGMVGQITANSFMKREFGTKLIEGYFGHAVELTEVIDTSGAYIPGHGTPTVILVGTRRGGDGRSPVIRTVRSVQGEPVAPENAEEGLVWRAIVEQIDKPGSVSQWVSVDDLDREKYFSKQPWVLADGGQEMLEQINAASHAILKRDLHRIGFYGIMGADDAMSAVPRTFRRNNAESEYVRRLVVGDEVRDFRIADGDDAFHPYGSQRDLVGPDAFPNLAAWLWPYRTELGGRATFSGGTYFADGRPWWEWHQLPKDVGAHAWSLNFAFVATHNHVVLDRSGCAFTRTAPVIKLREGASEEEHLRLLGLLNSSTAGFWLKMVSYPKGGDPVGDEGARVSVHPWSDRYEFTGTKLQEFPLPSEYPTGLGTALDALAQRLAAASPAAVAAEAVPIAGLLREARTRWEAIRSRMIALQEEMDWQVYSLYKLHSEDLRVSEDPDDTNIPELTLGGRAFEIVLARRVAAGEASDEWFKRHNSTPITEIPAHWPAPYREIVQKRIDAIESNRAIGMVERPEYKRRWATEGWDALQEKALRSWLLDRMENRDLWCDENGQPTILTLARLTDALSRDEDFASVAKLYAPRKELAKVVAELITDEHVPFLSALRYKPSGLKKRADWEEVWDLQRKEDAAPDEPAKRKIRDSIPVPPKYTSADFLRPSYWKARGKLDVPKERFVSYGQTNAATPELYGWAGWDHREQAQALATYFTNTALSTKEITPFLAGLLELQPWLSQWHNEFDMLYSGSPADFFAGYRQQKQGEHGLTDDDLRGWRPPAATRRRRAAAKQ

[3] = substrate: Nc1ncnc2c1ncn2[C@@H]1O[C@H](COP(=O)(O)OP(=O)(O)OP(=O)(O)O)[C@@H](O)[C@H]1O; test: Pi release, malachite green; type: biochemical, Streptomyces coelicolor; conditions: 30 °C, 40 mM HEPES pH 8.0, 10 mM MgCl2, 10 mM DTT, 0.1 mg/ml BSA

Question: How did the “inhibition of ATP hydrolysis, Pi release, malachite green” value [1] turn out when Nc1ncnc2c1ncn2[C@@H]1O[C@H](COP(=O)(O)OP(=O)(O)NP(=O)(O)O)[C@@H](O)[C@H]1O [ADP-NP] was run?
Answer: The value was “severely inhibited rate of hydrolysis of ATP, indicative of ADP-NP binding and inhibition of activity”.

Question: For C[S+](CC[C@H](N)C(=O)O)C[C@H]1O[C@@H](n2cnc3c(N)ncnc32)[C@H](O)[C@@H]1O (stereo partly shown) [AdoMet], which “3H-methyl incorporation into DNA, scintillation counting” value [2] is on record?
Answer: The value was “incorporation of label into TCA precipitable material was dependent on DNA addition”.

B1: PglY (His6–PglY) (Streptomyces coelicolor A3(2)) (protein)
chain: T1 sequence (O86682 1-1294)
notes: ~160 kDa band, MALDI-TOF identified; Walker A GSFGSGKS at 75–82
Question: For B1, which Km [3] is on record?
Answer: The Km was 0.5 mM.

B2: PglY (His6–PglY) (Streptomyces coelicolor A3(2); K81A/S82A) (protein)
chain: T1 sequence (O86682 1-1294) with K81A, S82A
notes: as for B1
Question: For B2, which Km ([3]; Walker A double mutant) is on record?
Answer: The Km was 100 mM.
